This assay has as its target Substance-P receptor (Homo sapiens, UniProt P25103). In words: Binding affinity at human Tachykinin receptor 1 expressed in CHO cells by [125 I]Trp8-substance P displacement. The assay is classed as cell-based.

Substance-P receptor, sequence (P25103 whole entry): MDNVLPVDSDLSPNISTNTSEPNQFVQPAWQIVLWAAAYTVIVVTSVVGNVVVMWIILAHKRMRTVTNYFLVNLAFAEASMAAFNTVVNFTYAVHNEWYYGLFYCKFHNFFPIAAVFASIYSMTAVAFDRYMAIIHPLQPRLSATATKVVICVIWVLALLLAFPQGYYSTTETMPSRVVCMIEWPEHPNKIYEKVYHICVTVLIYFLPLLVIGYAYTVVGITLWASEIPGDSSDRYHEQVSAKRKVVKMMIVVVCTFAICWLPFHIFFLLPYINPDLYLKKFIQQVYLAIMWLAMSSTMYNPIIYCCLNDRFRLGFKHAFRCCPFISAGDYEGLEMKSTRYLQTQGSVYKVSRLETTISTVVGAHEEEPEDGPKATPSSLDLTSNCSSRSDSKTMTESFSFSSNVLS

For orientation: IC50 means the midpoint of a concentration-inhibition curve. A high value points to weaker potency in that assay. `O=C1NC(Cc2c[nH]c3ccccc23)CN1Cc1cc(C(F)(F)F)cc(C(F)(F)F)c1` (centres undefined) returned an IC50 of 0.267 µM.
As to `C=CCC1(Cc2c[nH]c3ccccc23)OC(=O)N(Cc2cc(C(F)(F)F)cc(C(F)(F)F)c2)C1=O` (centres undefined), the IC50 stood at 0.031 µM.
As for `CC1(Cc2c[nH]c3ccccc23)OC(=O)N(Cc2cc(C(F)(F)F)cc(C(F)(F)F)c2)C1=O` (centres undefined), the IC50 is 0.011 µM.
In turn, `CN1C(=O)N(Cc2cc(C(F)(F)F)cc(C(F)(F)F)c2)C(=O)C1Cc1c[nH]c2ccccc12` (centres undefined) registered an IC50 of 0.153 µM. Against the preceding compound, the IC50 is about 14-fold higher.
Turning to `Cc1cc(C)cc(CN2C(=O)OC(Cc3c[nH]c4ccccc34)C2=O)c1` (centres undefined), the IC50 was 0.683 µM.
For `O=C1CNC(Cc2c[nH]c3ccccc23)CN1Cc1cc(C(F)(F)F)cc(C(F)(F)F)c1` (centres undefined) the value was 0.243 µM; for `FC(F)(F)c1cc(CN2CCNC(Cc3c[nH]c4ccccc34)C2)cc(C(F)(F)F)c1` (centres undefined), 0.567 µM.
Next, `O=C1OC(Cc2c[nH]c3ccccc23)C(=O)N1Cc1cc(Cl)cc(Cl)c1` (centres undefined): 0.273 µM; `O=C1C(Cc2c[nH]c3ccccc23)N(C(=O)Nc2ccccc2)C(=O)N1Cc1cc(C(F)(F)F)cc(C(F)(F)F)c1` (centres undefined): 0.22 µM.
`COc1cc(CN2C(=O)OC(Cc3c[nH]c4ccccc34)C2=O)cc(OC)c1` (centres undefined): the IC50 amounted to 7.37 µM. Against the preceding compound, the IC50 is about 34-fold higher.
`O=C1OC(Cc2c[nH]c3ccccc23)C(=O)N1Cc1cccc(C(F)(F)F)c1` (centres undefined) displayed an IC50 of 2.67 µM.
As to `O=C1NC(Cc2c[nH]c3ccccc23)CN(Cc2cc(C(F)(F)F)cc(C(F)(F)F)c2)C1=O` (centres undefined), the IC50 came to 0.4 µM.
Regarding `O=C1NC(Cc2c[nH]c3ccccc23)C(=O)N1Cc1cc(C(F)(F)F)cc(C(F)(F)F)c1` (centres undefined), the IC50 was determined as 0.317 µM.
For `O=C1CC(Cc2c[nH]c3ccccc23)C(=O)N1Cc1cc(C(F)(F)F)cc(C(F)(F)F)c1` (centres undefined) the value was 0.203 µM; for `CNC(=O)N1C(=O)N(Cc2cc(C(F)(F)F)cc(C(F)(F)F)c2)C(=O)C1Cc1c[nH]c2ccccc12` (centres undefined), 0.063 µM; for `O=C1C(Cc2c[nH]c3ccccc23)N(Cc2ccccc2)C(=O)N1Cc1cc(C(F)(F)F)cc(C(F)(F)F)c1` (centres undefined), 0.31 µM.
For `O=C1OC(Cc2c[nH]c3ccccc23)C(=O)N1Cc1cc(F)cc(F)c1` (centres undefined) the value was 4.28 µM.
For `O=C1OC(Cc2c[nH]c3ccccc23)C(=O)N1Cc1cc(C(F)(F)F)cc(C(F)(F)F)c1` (racemic) the value was 0.022 µM.
Compound `O=C1OC(Cc2c[nH]c3ccccc23)C(=O)N1Cc1cc(C(F)(F)F)cc(C(F)(F)F)c1` (single isomer, unassigned; (-)) yielded an IC50 of 0.026 µM.

Values taken from ChEMBL document CHEMBL1128268, “Tryptophan-derived NK1 antagonists: conformationally constrained heterocyclic bioisosteres of the ester linkage” (J Med Chem, 1995).
